Patent US11566062B2, “Methods for modulating protein mannosylation profiles using maduramycin, narasin, or salinomycin” (ARES TRADING S.A., priority 2017, dated 2023)
Entries after “also recorded” stand apart in the source; their conditions may differ.

Key:
Type in all cases: cell-based, Chinese hamster
[1] = tested on: mannosylation level of mAb1; test: Glycosylation (mannosylation) profile of mAb1 by 2AB-UPLC; parameters: level of ManS species / level of Man6 species (M6) / level of Man7 species / level of Man8 species / level of Man9 species: dose or concentration left out as unconfirmed; conditions: for level of Man6 species (M6) / level of Man7 species / level of Man8 species / level of Man9 species / level of ManS species: day 12, added at the start of the culture; for total mannosylation: 10 nM added at the start
Description: (§1) All assays were performed in fed-batch culture. A serum-free chemically defined culture medium was used. It was used as it is, or it was supplemented with polyether ionophore compounds (maduramycin, narasin, salinomycin and lasalocid were all purchased from Sigma-Aldrich) at the desired concentrations. The culture medium was fed, on a regular basis, with a chemically defined feed medium, as well as with glucose in order to keep said glucose level in the range of >0 to about 8 g/L (feeds were done at days 3, 5, 7, 10 and additional glucose feed at day 12).
(§2) For examples 2 and 3, cultures were performed in Ambr®15 with a working volume of 14 mL (36.5° C., Dissolved Oxygen 40%, 0.1 ml/min N2, pH range: 6.75-7.15, 800 rpm). A temperature shift was performed at day 6 for the cells expressing mAb1. Further conditions are mentioned in Table 2.
(§3) Glycosylation profiles were established either by Ultra Performance Liquid Chromatography-2-amino-benzamide labelling technique (2AB-UPLC; mAb1) or by mass spectroscopy (MS; mAB2). Groups of glycans were defined in Table 1.
(§4) The cells were cultivated and the results analysed as disclosed in the material and method section.

[2] = tested on: mannosylation level of mAb2; test: Glycosylation (mannosylation) profile of mAb2 by mass spectroscopy; conditions: for impact on afucoslyated glycoforms: data non shown; for level of Man5 species / level of Man6 species (M6) / level of Man7 species: day 10, 10 nM added at the start of the culture; for level of fucosylated glycoforms: not shown; for total mannosylation: 10 nM added at the start
Description: as §1, §2, §3, §4

[3] = tested on: mAb1 cells; test: Toxicity of the polyether ionophores: viable cell density (ViCell) in fed-batch SpinTubes culture; conditions: all concentrations tested (100, 250, 500 and 1000 nM; as low as 100 nM), vs control
Description: (§5) Cells expressing mAb1 and mAb2 were inoculated at 0.2×10^6 cells per millilitre (mL).
as §1
For example 1, cultures were performed in SpinTubes® with a working volume of 30 mL. They were incubated at 36.5° C., 5% de CO2, 80% humidity and shaken at 320 rpm. Salinomycin, narasin and maduramycin were tested at 100, 250, 500 and 1000 nM.
(§6) Each of the fed-batch culture lasted 14 days.
(§7) Viable cell density and viability were measured with the ViCell® (Beckmann Coulter). Antibody titers were measured with PA-HPLC.
The cells were cultivated and the results analysed as disclosed in the material and method section. It is noted that the controls (or control conditions) according to the present invention correspond to cells grown without any polyether ionophores.

[4] = tested on: mAb1 cells; test: Antibody titre (PA-HPLC) of mAb1 cells, fed-batch Ambr15; conditions: 5 and 10 nM added at the start of the culture
Description: as §5, §1, §2, §6, §7, §4

[5] = tested on: mAb2 cells; test: Viable cell density (ViCell) of mAb2 cells, fed-batch Ambr15
Description: as §5, §1, §2, §6, §7, §4

[6] = tested on: mAb1 cells; test: Viable cell density and viability (ViCell) of mAb1 cells, fed-batch Ambr15; conditions: 5 and 10 nM added at the start of the culture
Description: as §5, §1, §2, §6, §7, §4

[7] = tested on: mAb2 cells; test: Titre (PA-HPLC) of mAb2 cells, fed-batch Ambr15
Description: as §5, §1, §2, §6, §7, §4

[8] = 10 nM added at the start of the culture

## Lasalocid
[1]; concentration not given
  effect on mannosylation: no effect on mannosylation; also recorded: no impact on mannosylation

## CC[C@@H](C(=O)[C@@H](C)[C@@H](O)[C@H](C)[C@@H]1O[C@@H]([C@@H](CC)C(=O)O)CC[C@@H]1C)[C@H]1O[C@]2(C=C[C@@H](O)[C@]3(CC[C@@](C)([C@H]4CC[C@](O)(CC)[C@H](C)O4)O3)O2)[C@H](C)C[C@@H]1C [salinomycin, Salinomycin]
[2]
  impact on afucoslyated glycoforms: without deeply impacting afucoslyated glycoforms
  level of Man5 species: about 15%
  level of Man6 species (M6): about 2.5%
  level of Man7 species: about 0.65%
  level of fucosylated glycoforms: decreased
[3]
  VCD decreased by a factor: 3
[4]
  protein titre at the end of culture compared to the control: −15%
[5]; [8]
  cell growth compared to the control at the end of culture: not more than 10%
[6]
  cell growth (VCD) at the end of culture compared to the control: −13%
[1]
  level of Man6 species (M6): about 3.2%
  level of Man7 species: about 1.5%
  level of Man8 species: about 0.3%
  level of Man9 species: about 0.45%
  level of ManS species: about 27%

## CC[C@@H](C(=O)O)[C@@H]1O[C@@H]([C@@H](C)[C@H](O)[C@H](C)C(=O)[C@H](CC)[C@H]2O[C@]3(C=C[C@@H](O)[C@]4(CC[C@@](C)([C@H]5CC[C@](O)(CC)[C@H](C)O5)O4)O3)[C@H](C)C[C@@H]2C)[C@@H](C)C[C@@H]1C [narasin, Narasin]
[2]; after 10 days of culture
  total mannosylation: about 12.0%
[2]; after 12 days of culture
  total mannosylation: 18.0%
[2]
  impact on afucoslyated glycoforms: without deeply impacting afucoslyated glycoforms
  level of Man5 species: about 16.5%
  level of Man6 species (M6): about 3%
  level of Man7 species: about 1.0%
  level of fucosylated glycoforms: decreased
[3]
  VCD decreased by a factor: 3
[7]; 5 nM added at the start of the culture
  titre compared to the control: +10%
[7]; [8]
  titre compared to the control: +15%
[4]
  protein titre at the end of culture compared to the control: −15%
[5]; both concentrations (5 and 10 nM) added at the start of the culture
  impact on cell growth: negative impact on cell growth
[6]
  cell growth (VCD) at the end of culture compared to the control: −15%
[1]; after 12 days of culture
  total mannosylation: about 43%
[1]; after 14 days of culture
  total mannosylation: 38.9%
[1]
  level of Man6 species (M6): about 6.5%
  level of Man7 species: about 4.5%
  level of Man8 species: about 3.5%
  level of Man9 species: about 0.5%
  level of ManS species: about 32%
